Tests used:
Vero cells = test: Vero cell viability, MTT test, 72 h; format: cell-based, African green monkey; details: MTT; for Viability % ±s.d.: +F127 (Pluronic F-127), Vero, 3 days
Procedure: Before testing antiviral activity, the effect of porphyrins dissolved in PBS and Pluronic F-127 on the viability of Vero cells was evaluated. Cells were incubated for 72 h using different concentrations of porphyrins (0.39–100 μM). Viability was assessed using the MTT test (Figure S13, Table S1, Supplementary Information). The viability of Vero cells depends on the porphyrins’ structure and formulation.
Cell viability was assessed by MTT reduction assay. Briefly, confluent monolayer Vero cells in 96-well plates (15000 cells/well) were incubated for 72 h with different concentrations of the compounds ranging from 0.39 µM to 100 µM in DMEM-1% FCS at 36.8 °C in 5% CO2 atmosphere. Next, cells were incubated for 1 h with 1.0 mg/mL of 3-(4,5-dimethylthiazol-2-y1)-2,5-diphenyltetrazolium bromide (MTT, PanEco, Moscow, Russia) at 36.8 °C, and then the solution was removed, and precipitated formazan was diluted in DMSO (PanEco, Moscow, Russia). The solution was read on a spectrophotometer at 540 nm. For each concentration, the average cell viability was calculated from the data of three experiments with three replicates each and was expressed as a percentage compared to the untreated cells (100%).
Table s1. Vero cell viability after exposure to 3a, 3b, TMEPyP compounds dissolved in PBS and Pluronic F-127. Different concen-
trations of compounds were applied to the cell monolayer and after incubation for 3 days, the number of living cells was calculated
in the MTT test. Each point represents the mean ± standard deviation of three experiments with […] each. n.d. –not done.
Compound Concentration, µM/L Viability % ±s.d.

[1] = Micelle size of Pluronic F-127 formulations by dynamic light scattering; format: physicochemical; details: Pluronic F-127 micelles, concentration 3·10^−6 M
Procedure: The size of obtained micelles for the compounds 3a,b was determined by the dynamic light scattering (DLS) method. The micelle size for compounds 3a,b was 17.53 nm and 14.69 nm, respectively, at concentrations of 3·10^−6 M (Figure 4a,b). It has previously been reported that a similar micelle size increased the efficiency and circulation of the encapsulated drug in the blood due to the small scale, which avoided the capture of nanoparticles by the reticular endothelial system.
NMR (^1H and ^13C) spectra of the test solutions in CDCl3 or (CD3OD) were recorded on a Bruker MSL-300 pulse Fourier transform spectrometer (Bruker, Billerica, MA, USA) at frequencies of 300.3 and 75.49 MHz, respectively, with internal deuterium stabilization. Tetramethylsilane was used as an external standard. IR spectra (4000–500 cm^–1) were recorded on Infralyum FT 02 Fourier spectrometer (Lumex Instruments Research and Production Company, Moscow, Russia) with a resolution of 1 cm^−1. Samples were prepared as KBr tablets. Dynamic light scattering was measured using Malvern Zetasizer Nano ZS (Malvern, United Kingdom). […] Mass spectra were recorded using an 1100 LCMSD liquid chromatograph (Agilent Technologies, Santa Clara, CA, USA) equipped with a mass spectrometric chemical ionization detector at atmospheric pressure (HIAD, APCI, ESI) and with a UV spectrophotometric detector (DAD). […]

O=C(CCCCC[n+]1ccccc1)Oc1ccc(-c2c3nc(c(-c4ccc(OC(=O)CCCCC[n+]5ccccc5)cc4)c4ccc([nH]4)c(-c4ccc(OC(=O)CCCCC[n+]5ccccc5)cc4)c4nc(c(-c5ccc(OC(=O)CCCCC[n+]6ccccc6)cc5)c5ccc2[nH]5)C=C4)C=C3)cc1 [3b, 5,10,15,20-tetrakis(4-(6-pyridyl-n-hexanoyl)oxyphenyl)porphyrin tetrabromide]
Viability % ±s.d. (Vero cells; 0.39 µM/L): 97.6±6.9% | Viability % ±s.d. (Vero cells; 0.78 µM/L): 81.3±10.8% | Viability % ±s.d. (Vero cells; 1.56 µM/L): 82.7±19.5% | Viability % ±s.d. (Vero cells; 3.13 µM/L): 79.6±9.6% | Viability % ±s.d. (Vero cells; 6.25 µM/L): 63.4±8.1% | Viability % ±s.d. (Vero cells; 12.50 µM/L): 67.7±11.5% | Viability % ±s.d. (Vero cells; 25 µM/L): 58.4±4.4% | Viability % ±s.d. (Vero cells; 50 µM/L): 41.3±2.7% | Viability % ±s.d. (Vero cells; 100 µM/L): 25.0±1.9% | CC50 (Vero cells; Pluronic F-127 (F127) micellar formulation, Vero cells, 72 h): 27 µM | micelle size (DLS) [1]: 14.69 nm
